Results as given in patent publication US20240140986A1, “SYNTHETIC URSOLIC ACID DERIVATIVES AND METHODS OF USE THEREOF” (REATA PHARMACEUTICALS, INC., priority 2021, published 2024).
Like-named read-outs stand apart in the source and are kept apart here.

Assays:
[1] = system: IFNγ-induced NO production in RAW 264.7 cells; experiment: Nitric Oxide Suppression Assay (IFNγ-induced NO, Griess nitrite readout); format: cell-based, mouse; settings: for IC50: Mus musculus, read-out: Avg NO IC50 (nM) (Mean ± SD); for Avg NO IC50 Relative to RTA402 (fold): Table 2, ratio to RTA402
How it was run: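 RAW 264.7 mouse macrophages in RPMI 1640 with 0.5% FBS were pretreated 2 h with compound (0.1% DMSO final), then stimulated with 20 ng/mL IFNγ for 24 h at 37° C. Supernatant nitrite was read by Griess absorbance at 525 nm against a nitrite standard curve, normalized to DMSO-IFNγ wells; IC50 from curve fit. Viability by WST-1.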

[2] = system: Nrf2 / ARE-dependent luciferase in AREc32 reporter cell line; experiment: AREc32 luciferase reporter activation (Nrf2 induction); format: cell-based, human; settings: for EC (2-fold): Homo sapiens, Arec32; for Relative Avg AREc32 EC2X Relative to RTA402 (fold): ratio to RTA402
How it was run: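 EC2X is the concentration raising luminescence 2-fold above DMSO-treated cells, from a nonlinear-regression dose–response fit. Compounds (0.03–1000 nM) were applied for nineteen hours, starting one day after seeding 20,000 reporter cells per well. Luciferase was read with One-Glo reagent.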

[3] = RAW264.7, Table 2, RAW 264.7 cells, 2 h pretreatment, 20 ng/mL interferon gamma 24 h
[4] = Table 2, concentration increasing luminescence 2-fold above vehicle, 19 h treatment, read-out: Avg AREc32 EC2X (nM) (Mean ± SD)

IC50 [1, 3] [nM] | Avg NO IC50 Relative to RTA402 (fold) [1] [fold] | IC50 ([1]; RAW264.7, Table 3, ursolic acid derivatives) [nM] | Compound | EC (2-fold) [2, 4] [nM] | Relative Avg AREc32 EC2X Relative to RTA402 (fold) ([2]; Table 2) | EC (2-fold) ([2]; Table 3, ursolic acid derivatives, read-out: Avg ARE EC-2X (nM) (Mean ± SD))
19.6 ± 6.1 | 8.82 ± 3.07 | – | C[C@@H]1[C@H]2[C@H]3C(=O)C=C4[C@@]5(C)C=C(C#N)C(=O)C(C)(C)[C@@H]5CC[C@@]4(C)[C@]3(C)CC[C@@]2(C(=O)N2CCC2)CC[C@H]1C [Compound T70] | 21.6 ± 1.3 | 1.78 ± 0.34 | –
60.6 ± 0.9 | 28.1 ± 9.62 | – | C[C@@H]1[C@H]2[C@H]3C(=O)C=C4[C@@]5(C)C6O[C@@]6(C#N)C(=O)C(C)(C)[C@@H]5CC[C@@]4(C)[C@]3(C)CC[C@@]2(NC(=O)C(C)(F)F)CC[C@H]1C (stereo partly drawn) [Compound T100] | 29.4 ± 3.69 | 2.87 ± 0.59 | –

Second part, the molecule before the results:

Compound | IC50 [1, 3] [nM] | Avg NO IC50 Relative to RTA402 (fold) [1] [fold] | IC50 ([1]; RAW264.7, Table 3, ursolic acid derivatives) [nM] | EC (2-fold) [2, 4] [nM] | Relative Avg AREc32 EC2X Relative to RTA402 (fold) ([2]; Table 2) | EC (2-fold) ([2]; Table 3, ursolic acid derivatives, read-out: Avg ARE EC-2X (nM) (Mean ± SD))
C[C@@H]1[C@H]2[C@H]3C(=O)C=C4[C@@]5(C)C=C(C#N)C(=O)C(C)(C)[C@@H]5CC[C@@]4(C)[C@]3(C)CC[C@@]2(CNC(=O)N2CCC2)CC[C@H]1C [Compound T27] | 4.03 ± 1.66 | 1.15 ± 0.40 | – | 1.62 ± 0.22 | 0.144 ± 0.008 | –
C[C@@H]1[C@H]2[C@H]3C(=O)C=C4[C@@]5(C)C=C(C#N)C(=O)C(C)(C)[C@@H]5CC[C@@]4(C)[C@]3(C)CC[C@@]2(n2ccnn2)CC[C@H]1C [Compound T60] | 18.2 ± 6.2 | 4.94 ± 1.78 | – | 8.89 ± 1.13 | 0.791 ± 0.111 | –
CCS(=O)(=O)NC[C@]12CC[C@@H](C)[C@H](C)[C@H]1[C@H]1C(=O)C=C3[C@@]4(C)C=C(C#N)C(=O)C(C)(C)[C@@H]4CC[C@@]3(C)[C@]1(C)CC2 [Compound T32] | 5.34 ± 1.15 | 2.52 ± 1.11 | – | 4.2 ± 1.3 | 0.399 ± 0.111 | –
C[C@@H]1[C@H]2[C@H]3C(=O)C=C4[C@@]5(C)C=C(C#N)C(=O)C(C)(C)[C@@H]5CC[C@@]4(C)[C@]3(C)CC[C@@]2(c2nc(COC(C)(C)C)no2)CC[C@H]1C [Compound T9] | 11.3 ± 2.4 | 5.37 ± 0.71 | – | 19.3 ± 4.5 | 1.84 ± 0.20 | –
C[C@@H]1[C@H]2[C@H]3C(=O)C=C4[C@@]5(C)C=C(C#N)C(=O)C(C)(C)[C@@H]5CC[C@@]4(C)[C@]3(C)CC[C@@]2(Cn2cncn2)CC[C@H]1C [Compound T47] | 8.19 ± 2 | 2.70 ± 0.52 | 8.19 ± 2 | 7.08 ± 1.2 | 0.573 ± 0.139 | 7.1 ± 1.2
